Literature values as cited in US10413538B2, “Administration of karenitecin for the treatment of platinum and/or taxane chemotherapy-resistant or -refractory advanced ovarian cancer” (priority 2013, dated 2019).

Assays:
[1] = human, in vivo; cited from earlier work
[2] = system: resistant subline of cells containing less than 4% of the topoisomerase I activity; settings: subline with <4% topoisomerase I activity; cited from earlier work
[3] = system: MDR-expressing sublines; settings: P-glycoprotein-associated MDR phenotype; cited from earlier work

SMILES | resistance of MDR-expressing sublines relative to parental wild-type cells [3] [fold] | further results
Nc1ccn([C@@H]2O[C@H](CO)[C@@H](O)C2(F)F)c(=O)n1 [Gemcitabine] |  | patients with neutropenia [1]: up to 90%
CC[C@@]1(O)C(=O)OCc2c1cc1n(c2=O)Cc2cc3ccccc3nc2-1 [camptothecin] |  | decrease in sensitivity of resistant subline versus wild-type parental cells [2]: 1000 fold
COc1cccc2c1C(=O)c1c(O)c3c(c(O)c1C2=O)C[C@@](O)(C(=O)CO)C[C@@H]3O[C@H]1C[C@H](N)[C@H](O)[C@H](C)O1 [doxorubicin] | 200 | 
COc1cc([C@@H]2c3cc4c(cc3[C@@H](O[C@@H]3O[C@@H]5CO[C@@H](C)O[C@H]5[C@H](O)[C@H]3O)[C@H]3COC(=O)[C@H]23)OCO4)cc(OC)c1O [etoposide] | 200 | 
